# B1: 11-90aa: PHB2 peptide of 11-90aa comprising the two regions of No. 1 and No. 5; 80 amino acids (peptide)
# chain: RLPAGPRGMGTALKLLLGAGAVAYGVRESVFTVEGGHRAIFFNRIGGVQQDTILAEGLHFRIPWFQYPIIYDIRARPRKI
# modifications: PHB2 derived peptide 11-90aa
# notes: PHB2 peptide of 11-90aa comprising the two regions of No. 1 and No. 5; 80 amino acids
# Key:
# [1] = system: PHB2 (Ser39) phosphorylation; assay: Ser39 phosphorylation of PHB2 in MCF-7 by Western blotting; assay type: cell-based, Human; conditions: MCF-7, 10 μM each peptide, 10 nM estrogen, 24 hours (FIG. 2C)
# Experimental: (§1) For immunoblot analyses, after performing SDS-PAGE, the membranes blotted with proteins were blocked with 4% BlockAce solution (Dainippon Pharmaceutical, Osaka, Japan) for 3 hours and then incubated to react for 12 hours with antibodies against BIG3 (1:1,000), PHB2 (1:1,000) (Abcam, Cambridge, UK) and phosphorylated PHB2 (Ser39, Scrum, Tokyo, Japan). After allowing interaction with HRP-labeled secondary antibodies (anti-rat IgG-HRP for BIG3, 1:5,000; and anti-rabbit IgG-HRP for PHB2 and phosphorylated PHB2, 1:1,000) (Santa Cruz Biotechnology, Dallas, TX, USA) for 1 hour, the blots were developed with the Enhanced Chemiluminescence (ECL) system (GE Healthcare, Buckinghamshire, UK) and scanned using the Image Reader LAS-3000 mini (Fujifilm, Tokyo, Japan).
# [2] = system: Human breast cancer cell line MCF-7; assay: Estrogen (E2)-dependent growth assay on MCF-7; assay type: cell-based; conditions: MCF-7, 10 μM peptide alone, 10 nM estrogen, after 96 hours
# [3] = system: Human breast cancer cell line MDA-MB-231; assay: Combination assay on MDA-MB-231; assay type: cell-based; conditions: MDA-MB-231, each peptide at respective IC50, 96 hours
# Experimental: MDA-MB-231 cells were seeded into 48-well plates at a cell density of 1×10^4 cells/200 μL in well. 48 hours later, the medium in each well was exchanged to media supplemented with PHB2 peptide 11-22aa (added concentration: IC50 value), PHB2 peptide 76-90aa (added concentration: IC50 value) and a mixed solution of both peptides (added concentration: respective IC50 value), respectively, or to a medium supplemented with phosphate buffered saline (PBS) as a negative control. After culture for another 96 hours, the cell growth level was measured using the Cell Counting Kit-8 (Dojindo, Kumamoto, Japan). The data obtained was used to calculate relative values based on the growth level when PBS was added, and the graph was produced.
# [4] = system: Human breast cancer cell line MCF-7; assay: Estrogen (E2)-dependent growth assay on MCF-7; assay type: cell-based; conditions: MCF-7, 10 μM each peptide, 10 nM estrogen, 24 hours
# Experimental: (§2) Growth assay on MCF-7 was carried out by seeding cells into 48-well plates (2×10^4 cells/200 μL). First, on the next day after seeding, the medium was changed to phenol red-free DMEM/F12 (Thermo Fisher Scientific) supplemented with 10% FBS, 1% Antibiotic/Antimycotic solution, 0.1 mM NEAA, 1 mM sodium pyruvate, and 10 μg/mL insulin. 24 hours later, the cells were treated with 10 nM 17β-estradiol (estrogen, Sigma) alone or with 10 nM estrogen and a PHB2 sequence-derived peptide. Growth assay on MCF-10A was carried out by seeding cells into 48-well plates (2×10^4 cells/200 μL). 24 hours after seeding, PHB2 sequence-derived peptide was added. Growth assays were carried out using the Cell Counting Kit-8 (CCK-8) (Dojindo, Kumamoto, Japan). The data are shown by mean±standard deviation of three independent experiments.
# PHB2 peptides 11-21aa and 76-88aa were cross-linked by three types of cross-linking methods (FIG. 10A: hexafluorobenzene cross-linking, decafluorobiphenyl cross-linking, and disulfide cross-linking) to prepare cross-linked PHB2 peptides (stapled PHB2 peptides) (FIG. 10B), and the suppressive effects of these peptides on estrogen-dependent growth were examined. In the experiment, breast cancer cells MCF-7 were seeded, 10 μM each PHB2 peptide and 10 nM estrogen were added after 48 hours, and the cell number was evaluated after another 24 hours by MTT assay.
# [5] = system: Human breast cancer cell line MDA-MB-231; conditions: 96 h
# Experimental: MDA-MB-231 cells were seeded into 48-well plates at a cell density of 1×10^4 cells/200 μL in well. […] Data were obtained from three independent experiments, a graph (mean±standard deviation) was produced using a graphing and data analyzing software SigmaPlot (Systat Software, San Jose, CA, USA), and the 50% inhibition concentration (IC50) of the peptide against cell growth was calculated.
# [6] = system: Normal mammary gland epithelial cell line MCF-10A; assay: Growth assay on normal mammary gland epithelial cells MCF-10A; assay type: cell-based; conditions: MCF-10A, 10 μM each peptide, 24 hours
# Experimental: as §2
# [7] = target: T1, interaction between BIG3 and PHB2 (Homo sapiens, UniProt Q5TH69); assay: Inhibition of BIG3-PHB2 binding in MCF-7, immunoprecipitation with anti-BIG3 antibody and Western blotting; assay type: cell-based; conditions: MCF-7 (FIG. 3B)
# T1 construct: endogenous in cells; host or cells: MCF-7 (human breast cancer cell line)
# Experimental: as §1
# For immunoprecipitation, MCF-7 was seeded into 10 cm dishes (2×10^6 cells/10 mL), and like cell growth assay, MCF-7 was treated with 10 nM estrogen alone or with 10 nM estrogen and PHB2 sequence-derived peptide. For immunoprecipitation analysis, cell lysates lysed in a cell lysis buffer (50 mM Tris-HCl; pH 8.0, 150 mM NaCl, 0.1% NP-40, and 0.5% CHAPS; 0.1% protease inhibitor cocktail III) were pre-cleared with a rat IgG antibody and rec-Protein G Sepharose 4B (Thermo Fisher Scientific) at 4° C. for 3 hours. Then, the supernatants were incubated for reaction with 5 μg of an antibody against BIG3 at 4° C. for 12 hours. […]
# T1 sequence (Q5TH69 whole entry): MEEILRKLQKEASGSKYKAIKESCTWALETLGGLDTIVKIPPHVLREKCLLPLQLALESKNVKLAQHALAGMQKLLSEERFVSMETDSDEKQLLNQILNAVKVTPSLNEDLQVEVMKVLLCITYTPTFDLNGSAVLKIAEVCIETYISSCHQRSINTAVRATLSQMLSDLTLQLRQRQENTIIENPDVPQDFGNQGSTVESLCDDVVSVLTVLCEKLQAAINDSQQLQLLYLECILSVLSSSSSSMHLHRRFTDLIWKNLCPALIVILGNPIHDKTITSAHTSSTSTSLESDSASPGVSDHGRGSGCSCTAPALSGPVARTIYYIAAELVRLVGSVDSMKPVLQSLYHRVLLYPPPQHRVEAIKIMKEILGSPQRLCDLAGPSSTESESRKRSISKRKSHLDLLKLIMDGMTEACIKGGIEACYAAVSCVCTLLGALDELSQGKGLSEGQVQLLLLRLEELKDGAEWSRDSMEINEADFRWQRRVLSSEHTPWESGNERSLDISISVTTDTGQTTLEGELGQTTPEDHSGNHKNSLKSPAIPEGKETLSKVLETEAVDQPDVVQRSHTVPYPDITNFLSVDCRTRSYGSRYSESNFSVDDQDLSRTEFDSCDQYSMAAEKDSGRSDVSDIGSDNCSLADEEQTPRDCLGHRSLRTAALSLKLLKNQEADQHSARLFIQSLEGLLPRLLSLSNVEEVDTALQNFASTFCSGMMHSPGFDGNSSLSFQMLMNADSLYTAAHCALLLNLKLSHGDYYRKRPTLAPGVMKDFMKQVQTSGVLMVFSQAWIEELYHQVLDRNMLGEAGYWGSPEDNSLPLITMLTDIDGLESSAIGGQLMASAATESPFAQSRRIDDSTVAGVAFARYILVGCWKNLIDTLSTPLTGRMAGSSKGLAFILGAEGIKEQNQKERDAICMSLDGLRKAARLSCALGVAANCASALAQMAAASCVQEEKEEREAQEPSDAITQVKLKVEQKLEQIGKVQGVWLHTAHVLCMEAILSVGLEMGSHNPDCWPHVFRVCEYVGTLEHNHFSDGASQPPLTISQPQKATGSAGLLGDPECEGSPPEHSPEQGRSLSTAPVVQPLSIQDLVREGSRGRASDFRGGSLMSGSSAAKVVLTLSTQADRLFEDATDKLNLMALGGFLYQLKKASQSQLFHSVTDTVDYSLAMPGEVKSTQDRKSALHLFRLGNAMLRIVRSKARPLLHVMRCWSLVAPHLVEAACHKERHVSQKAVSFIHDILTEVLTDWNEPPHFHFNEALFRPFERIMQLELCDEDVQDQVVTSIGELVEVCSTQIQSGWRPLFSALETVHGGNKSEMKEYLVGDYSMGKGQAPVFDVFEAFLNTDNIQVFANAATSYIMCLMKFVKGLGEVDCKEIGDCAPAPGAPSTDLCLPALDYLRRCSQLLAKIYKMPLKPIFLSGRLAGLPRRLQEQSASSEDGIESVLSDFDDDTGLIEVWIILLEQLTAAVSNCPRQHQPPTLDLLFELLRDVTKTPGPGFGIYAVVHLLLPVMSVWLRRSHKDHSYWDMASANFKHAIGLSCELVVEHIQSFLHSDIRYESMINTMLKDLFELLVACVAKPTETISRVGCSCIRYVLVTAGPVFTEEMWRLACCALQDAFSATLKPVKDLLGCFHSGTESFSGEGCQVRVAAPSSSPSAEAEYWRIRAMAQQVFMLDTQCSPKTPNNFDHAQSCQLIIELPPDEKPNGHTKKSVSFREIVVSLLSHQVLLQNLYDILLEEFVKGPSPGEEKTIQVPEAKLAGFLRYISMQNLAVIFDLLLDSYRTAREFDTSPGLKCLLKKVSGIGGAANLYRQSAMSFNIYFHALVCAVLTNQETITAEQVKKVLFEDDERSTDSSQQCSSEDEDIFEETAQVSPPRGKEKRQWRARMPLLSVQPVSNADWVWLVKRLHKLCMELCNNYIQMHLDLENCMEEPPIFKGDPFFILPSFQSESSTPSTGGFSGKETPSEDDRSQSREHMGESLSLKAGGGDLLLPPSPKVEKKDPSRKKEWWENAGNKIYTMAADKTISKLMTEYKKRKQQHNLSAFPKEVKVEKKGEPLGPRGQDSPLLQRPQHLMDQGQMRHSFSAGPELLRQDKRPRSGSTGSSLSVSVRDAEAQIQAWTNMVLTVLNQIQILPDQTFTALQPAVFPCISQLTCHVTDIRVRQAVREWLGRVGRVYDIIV
Molecule,band intensity of Ser39 phosphorylation of PHB2 compared to ERAP treatment [1] [%],suppression ratio of E2-dependent growth [2] [%],suppression of growth compared to PBS [3],suppression ratio of E2-dependent growth ([4]; listed as 11-22aa) [%],suppression ratio of E2-dependent growth ([4]; listed as PHB2 (11-22aa)) [%],suppression ratio of E2-dependent growth ([4]; listed as SEQ ID NO: 1),IC50 [5] [nM],inhibition ratio of MCF-10A growth [6],suppression ratio of E2-dependent growth ([4]; listed as 76-90aa) [%],suppression ratio of E2-dependent growth ([4]; listed as PHB2 (76-90aa)) [%],inhibition of the binding between BIG3 and PHB2 [7]
CSCC[C@H](NC(=O)CNC(=O)[C@H](CCCNC(=N)N)NC(=O)[C@@H]1CCCN1C(=O)CNC(=O)[C@H](C)NC(=O)[C@@H]1CCCN1C(=O)[C@H](CC(C)C)NC(=O)[C@@H](N)CCCNC(=N)N)C(=O)NCC(=O)N[C@H](C(=O)N[C@@H](C)C(=O)N[C@@H](CCCNC(=N)N)C(=O)N[C@@H](CCCNC(=N)N)C(=O)N[C@@H](CCCNC(=N)N)C(=O)N[C@@H](CCCNC(=N)N)C(=O)N[C@@H](CCCNC(=N)N)C(=O)N[C@@H](CCCNC(=N)N)C(=O)N[C@@H](CCCNC(=N)N)C(=O)N[C@@H](CCCNC(=N)N)C(=O)O)[C@@H](C)O [No. 1],40,31,about 50%,40,63,about 65%,462,no effect on growth,–,–,–
CC[C@H](C)[C@H](NC(=O)[C@H](CC(=O)O)NC(=O)[C@H](Cc1ccc(O)cc1)NC(=O)[C@@H](NC(=O)[C@@H](NC(=O)[C@@H]1CCCN1C(=O)[C@H](Cc1ccc(O)cc1)NC(=O)[C@@H](N)CCC(N)=O)[C@@H](C)CC)[C@@H](C)CC)C(=O)N[C@@H](CCCNC(=N)N)C(=O)N[C@@H](C)C(=O)N[C@@H](CCCNC(=N)N)C(=O)N1CCC[C@H]1C(=O)N[C@@H](CCCNC(=N)N)C(=O)N[C@@H](CCCCN)C(=O)N[C@H](C(=O)N[C@@H](CCCNC(=N)N)C(=O)N[C@@H](CCCNC(=N)N)C(=O)N[C@@H](CCCNC(=N)N)C(=O)N[C@@H](CCCNC(=N)N)C(=O)N[C@@H](CCCNC(=N)N)C(=O)N[C@@H](CCCNC(=N)N)C(=O)N[C@@H](CCCNC(=N)N)C(=O)N[C@@H](CCCNC(=N)N)C(=O)O)[C@@H](C)CC [No. 5],20,24,about 50%,–,–,–,273,no effect on growth,61,51,–
B1,–,–,–,–,–,–,–,–,–,–,did not provide a sufficient effect of inhibiting the binding
